Measurements taken from US8778926B2, “Compounds, pharmaceutical compositions and uses thereof” (Boehringer Ingelheim International GmbH, priority 2011, dated 2014).

Biological target: T1, human GPR119 (Homo sapiens, UniProt Q8TDV5)
T1 construct: expression vector for human GPR119 cDNA (Acc. No. NP_848566); expressed in transfected cells
T1 sequence (Q8TDV5 1-335): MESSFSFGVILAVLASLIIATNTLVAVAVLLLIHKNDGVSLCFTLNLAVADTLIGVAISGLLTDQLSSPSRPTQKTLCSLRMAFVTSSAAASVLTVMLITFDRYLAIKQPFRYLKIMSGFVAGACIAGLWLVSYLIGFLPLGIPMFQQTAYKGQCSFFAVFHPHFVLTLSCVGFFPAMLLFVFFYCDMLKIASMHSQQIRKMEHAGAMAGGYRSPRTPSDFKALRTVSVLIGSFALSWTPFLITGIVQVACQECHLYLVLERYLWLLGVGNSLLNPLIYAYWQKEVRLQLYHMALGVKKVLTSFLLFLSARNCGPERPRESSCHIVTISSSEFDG
Experiment: AlphaScreen cAMP assay, activation of GPR119 in Min-6/hGPR119 cells
Format: cell-based
Conditions: MIN6 cells stably transfected with human GPR119; intracellular cAMP; 45 minutes incubation at room temperature
Procedure: The compounds of formula I according to the invention modulate the activity of the G-protein-coupled receptor GPR119. The effect of the compounds on the activation of GPR119 and on the stimulation of intracellular cAMP concentration is determined using the AlphaScreen cAMP Assay Kit (Cat. No. #6760625R) made by PerkinElmer.
MIN6 cells [Miyazaki J et al. Endocrinology. 1990 July; 127(1):126-32] are stably transfected with an expression vector for human GPR119 cDNA (Acc. No. NP_848566). Min-6/hGPR119 cells are cultured in DMEM, 10% FBS, 500 μM β-mercaptoethanol, 0.3 mg/mL Geniticin, 2 mM GlutaMAX at 37° C. 5% CO2. For the assay, the cells are seeded in Optiplates (white, 384-well, 160 W— barcoded, TC, sterile with lid, Cat. No. #6007688 (Perkin Elmer); 10000 cells/well; 50 μl). The plates covered with lids are then incubated for 24 hours at 37° C./5% CO2. After the medium is aspirated from the wells completely, 10 μl of the test compound are added, the compounds are diluted using stimulating buffer (140 mM NaCl, 3.6 mM KCl, 0.5 mM NaH2PO4, 0.5 mM MgSO4, 1.5 mM CaCl2, 10 mM Hepes, 5 mM NaHCO3; pH 7.4. 0.5 mM IBMX and 0.1% BSA, the final DMSO concentration is 1%). After 45 minutes incubation at room temperature (approx. 20° C.), the cAMP concentrations are determined using the AlphaScreen cAMP Assay Kit (Cat. No. #6760625R from PerkinElmer).

SMILES | EC50
CC(C)c1nc(N2CCC(C3Cc4cc(-c5ccc(CS(C)(=O)=O)cc5F)ncc4O3)CC2)no1 (stereo not shown) [Example 24, 5-(2-Fluoro-4-methanesulfonylmethyl-phenyl)-2-[1-(5-isopropyl-[1,2,4]oxadiazol-3-yl)-piperidin-4-yl]-2,3-dihydro-furo[2,3-c]pyridine] | 60 nM
CS(=O)(=O)c1ccc(-c2cc3c(cn2)OC(C2CCN(c4nc(C(F)(F)F)no4)CC2)C3)cc1 (stereo not shown) [Example 14, 5-(4-Methanesulfonyl-phenyl)-2-[1-(3-trifluoromethyl-[1,2,4]oxadiazol-5-yl)-piperidin-4-yl]-2,3-dihydro-furo[2,3-c]pyridine] | 29 nM
CC(C)c1nc(N2CCC([C@]3(C)Cc4cc(C5=CCN(S(C)(=O)=O)CC5)ncc4O3)CC2)no1 (single isomer, unassigned) [Example 43] | 9 nM
CCc1cnc(N2CCC([C@@H]3Cc4cc(C5=CCN(S(C)(=O)=O)CC5)ncc4O3)CC2)nc1 (single isomer, unassigned) [Example 30] | 4 nM
CC(C)c1noc(N2CCC([C@@H]3Cc4cc(C5=CCN(S(C)(=O)=O)CC5)ncc4O3)CC2)n1 (single isomer, unassigned) [Example 55] | 16 nM
CS(=O)(=O)N1CC=C(c2cc3c(cn2)O[C@@H](C2CCN(c4ccc(C(F)(F)F)cn4)CC2)C3)CC1 (single isomer, unassigned) [Example 82] | 3 nM
CCc1cnc(N2CCC([C@H]3Cc4cc(C5=CCN(S(C)(=O)=O)CC5)ncc4O3)CC2)nc1 (single isomer, unassigned) [Example 31] | 3 nM
CC(C)c1nc(N2CCC(C3Cc4cc(C5=CCN(S(C)(=O)=O)CC5)ncc4O3)CC2)no1 (stereo not shown) [Example 22] | 6 nM
CS(=O)(=O)N1CC=C(c2cc3c(cn2)O[C@@H](C2CCN(c4nnc(C(F)(F)F)s4)CC2)C3)CC1 (single isomer, unassigned) [Example 81] | 10 nM
CC1(c2nc(N3CCC([C@@H]4Cc5cc(C6=CCN(S(C)(=O)=O)CC6)ncc5O4)CC3)no2)CC1 (single isomer, unassigned) [Example 57] | 36 nM
CS(=O)(=O)N1CC=C(c2cc3c(cn2)O[C@H](C2CCN(c4ncc(Cl)cn4)CC2)C3)CC1 (single isomer, unassigned) [Example 86] | 12 nM
CC(C)c1noc(N2CCC([C@]3(C)Cc4cc(C5=CCN(S(C)(=O)=O)CC5)ncc4O3)CC2)n1 (single isomer, unassigned) [Example 42] | 11 nM
CC(C)c1noc(N2CCC([C@]3(C)Cc4cc(-c5ccc(S(C)(=O)=O)cc5)ncc4O3)CC2)n1 (single isomer, unassigned) [Example 26] | 9 nM
CCCc1nc(N2CCC(C3Cc4cc(C5=CCN(S(C)(=O)=O)CC5)ncc4O3)CC2)no1 (single isomer, unassigned) [Example 44] | 6 nM
CCCc1nc(N2CCC([C@@H]3Cc4cc(C5=CCN(S(C)(=O)=O)CC5)ncc4O3)CC2)no1 (single isomer, unassigned) [Example 49] | 25 nM
CCCc1noc(N2CCC(C3Cc4cc(-c5ccc(CS(C)(=O)=O)cc5)ncc4O3)CC2)n1 (stereo not shown) [Example 15, 5-(4-Methanesulfonylmethyl-phenyl)-2-[1-(3-propyl-[1,2,4]oxadiazol-5-yl)-piperidin-4-yl]-2,3-dihydro-furo[2,3-c]pyridine] | 38 nM
Cc1cnc(N2CCC(C3Cc4cc(-c5ccc(S(C)(=O)=O)cc5)ncc4O3)CC2)cn1 (stereo not shown) [Example 10, 5-(4-Methanesulfonyl-phenyl)-2-[1-(5-methyl-pyrazin-2-yl)-piperidin-4-yl]-2,3-dihydro-furo[2,3c]pyridine] | 152 nM
C[C@@]1(C2CCN(c3ncc(C4CC4)cn3)CC2)Cc2cc(-c3ccc(S(C)(=O)=O)cc3)ncc2O1 (single isomer, unassigned) [Example 89] | 16 nM
CC(C)c1noc(N2CCC(C3Cc4cc(C5=CCN(S(C)(=O)=O)CC5)ncc4O3)CC2)n1 (stereo not shown) [Example 20, 2-[1-(3-Isopropyl-[1,2,4]oxadiazol-5-yl)-piperidin-4-yl]-5-(1-methanesulfonyl-1,2,3,6-tetrahydro-pyridin-4-yl)-2,3-dihydro-furo[2,3-c]pyridine] | 16 nM
CCCc1noc(N2CCC(C3Cc4cc(-c5ccc(S(C)(=O)=O)cc5)ncc4O3)CC2)n1 (stereo not shown) [Example 7, 5-(4-Methanesulfonyl-phenyl)-2-[1-(3-propyl-[1,2,4]oxadiazol-5-yl)-piperidin-4-yl]-2,3-dihydro-furo[2,3-c]pyridine] | 35 nM
CS(=O)(=O)N1CC=C(c2cc3c(cn2)O[C@@H](C2CCN(c4ncc(Cl)cn4)CC2)C3)CC1 (single isomer, unassigned) [Example 83] | 3 nM
CCCc1nc(N2CCC(C3Cc4cc(-c5ccc(S(C)(=O)=O)cc5)ncc4O3)CC2)no1 (stereo not shown) [Example 9, 5-(4-Methanesulfonyl-phenyl)-2-[1-(5-propyl-[1,2,4]oxadiazol-3-yl)-piperidin-4-yl]-2,3-dihydro-furo[2,3-c]pyridine] | 12 nM
C[C@@]1(C2CCN(c3ncc(C(F)(F)F)cc3F)CC2)Cc2cc(C3=CCN(S(C)(=O)=O)CC3)ncc2O1 (single isomer, unassigned) [Example 40] | 2 nM
CCCc1nc(N2CCC([C@]3(C)Cc4cc(C5=CCN(S(C)(=O)=O)CC5)ncc4O3)CC2)no1 (single isomer, unassigned) [Example 47] | 6 nM
C[C@@]1(C2CCN(c3ncc(C(F)(F)F)cn3)CC2)Cc2cc(C3=CCN(S(C)(=O)=O)CC3)ncc2O1 (single isomer, unassigned) [Example 35] | 3 nM
CS(=O)(=O)N1CC=C(c2cc3c(cn2)O[C@H](C2CCN(c4ncc(C(F)(F)F)cn4)CC2)C3)CC1 (single isomer, unassigned) [Example 52] | 19 nM

Next, values leading:

EC50 | SMILES
22 nM | CCc1cnc(N2CCC([C@]3(C)Cc4cc(-c5ccc(S(C)(=O)=O)cc5)ncc4O3)CC2)nc1 (single isomer, unassigned) [Example 28]
11 nM | CCc1cnc(N2CCC(C3Cc4cc(-c5ccc(C(=O)N6CCOCC6)cc5)ccc4O3)CC2)nc1 (stereo not shown) [Example 60]
52 nM | CCc1cnc(N2CCC(C3Cc4cc(-c5ccc(C(=O)NCC(C)O)cc5)ccc4O3)CC2)nc1 (stereo not shown) [Example 74]
20 nM | CCc1cnc(N2CCC(C3Cc4cc(-c5ccc(C(=O)N(C)CCOC)cc5)ccc4O3)CC2)nc1 (stereo not shown) [Example 62]
60 nM | CCc1cnc(N2CCC(C3Cc4cc(-c5ccc(C(=O)N6CCC(C)(O)C6)cc5)ccc4O3)CC2)nc1 (stereo not shown) [Example 68]
13 nM | CS(=O)(=O)c1ccc(-c2cc3c(cn2)O[C@@H](C2CCN(c4ncc(Cl)cn4)CC2)C3)cc1 (single isomer, unassigned) [Example 87]
22 nM | CCc1cnc(N2CCC(C3Cc4cc(-c5ccc(CS(C)(=O)=O)cc5)ncc4O3)CC2)nc1 (stereo not shown) [Example 12, 2-[1-(5-Ethyl-pyrimidin-2-yl)-piperidin-4-yl]-5-(4-methanesulfonylmethyl-phenyl)-2,3-dihydro-furo[2,3-c]pyridine]
81 nM | CCc1cnc(N2CCC(C3Cc4cc(-c5ccc(C(=O)NCCC(C)(C)O)cc5)ccc4O3)CC2)nc1 (stereo not shown) [Example 75]
71 nM | CS(=O)(=O)c1ccc(-c2ccc3c(c2)CC(C2CCN(c4nc(C5CC5)no4)CC2)O3)cc1 (stereo not shown) [Example 3, 1-(3-Cyclopropyl-[1,2,4]oxadiazol-5-yl)-4-[5-(4-methanesulfonyl-phenyl)-2,3-dihydro-benzofuran-2-yl]-piperidine]
18 nM | COc1cnc(N2CCC([C@H]3Cc4cc(-c5ccc(S(C)(=O)=O)cc5)ncc4O3)CC2)nc1 (single isomer, unassigned) [Example 94]
12 nM | CCc1cnc(N2CCC(C3Cc4cc(-c5ccc(C(=O)NCC6CCCO6)cc5)ccc4O3)CC2)nc1 (stereo not shown) [Example 72]
12 nM | CCc1cnc(N2CCC(C3Cc4cc(-c5ccc(S(C)(=O)=O)cc5)ncc4O3)CC2)nc1 (stereo not shown) [Example 5, 2-[1-(5-Ethyl-pyrimidin-2-yl)-piperidin-4-yl]-5-(4-methanesulfonyl-phenyl)-2,3-dihydro-furo[2,3-c]pyridine]
63 nM | CCc1cnc(N2CCC(C3Cc4cc(-c5ccc(C(=O)NCCC(C)O)cc5)ccc4O3)CC2)nc1 (stereo not shown) [Example 66]
48 nM | CCc1cnc(N2CCC(C3Cc4cc(-c5ccc(C(=O)N6CCC(OC)CC6)cc5)ccc4O3)CC2)nc1 (stereo not shown) [Example 69]
